This note sets out measurements from patent US8546376B2, “Pharmaceutical compounds” (Almac Discovery Limited, priority 2009, dated 2013).

pIC50: −log10 of the molar value. Counter-ions that a name gives are not always drawn. Bounds are passed on as bounds.

Type in all cases: biochemical
The target of assay [1] is T1, AKT3 (Homo sapiens, UniProt Q9Y243).
T1 construct: purchased SignalChem
Put plainly: AKT Kinase Assay (IMAP fluorescent polarisation) vs AKT3. The settings on record: activated AKT3, FAM Crosstide substrate. The gist of the method:
(§1)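 IC50 values came from non-linear regression of % inhibition relative to vehicle, measured by IMAP fluorescence polarisation (485/528 nm) after a 1 h room-temperature reaction of FAM-Crosstide and ATP. Each activated isoform was first exposed to compound for 45 min across fourteen half-log doses.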

The target in assay [2] is T2, AKT2 (Homo sapiens, UniProt P31751).
T2 construct: purchased SignalChem
T2 sequence (P31751 whole entry): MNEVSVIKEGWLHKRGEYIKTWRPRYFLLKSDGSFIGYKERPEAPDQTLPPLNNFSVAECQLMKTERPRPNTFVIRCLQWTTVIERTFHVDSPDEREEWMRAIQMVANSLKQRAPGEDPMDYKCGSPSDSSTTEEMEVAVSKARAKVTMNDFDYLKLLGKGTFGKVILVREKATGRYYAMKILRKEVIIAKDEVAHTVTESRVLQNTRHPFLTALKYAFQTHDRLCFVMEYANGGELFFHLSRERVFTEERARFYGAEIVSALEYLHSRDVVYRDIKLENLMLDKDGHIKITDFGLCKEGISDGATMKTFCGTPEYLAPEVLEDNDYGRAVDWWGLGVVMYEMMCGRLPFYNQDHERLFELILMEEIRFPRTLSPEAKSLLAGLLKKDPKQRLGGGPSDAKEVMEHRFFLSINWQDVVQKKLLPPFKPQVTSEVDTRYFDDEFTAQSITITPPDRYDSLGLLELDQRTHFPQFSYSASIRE
Put plainly: AKT Kinase Assay (IMAP fluorescent polarisation) vs AKT2. The settings on record: activated AKT2, FAM Crosstide substrate. The gist of the method:
as §1

Assay [3] addresses T3, AKT1 (Homo sapiens, UniProt P31749).
T3 construct: purchased SignalChem
Put plainly: AKT Kinase Assay (IMAP fluorescent polarisation) vs AKT1. The settings on record: activated AKT1, FAM Crosstide substrate. The gist of the method: as §1

T3 sequence (P31749 whole entry): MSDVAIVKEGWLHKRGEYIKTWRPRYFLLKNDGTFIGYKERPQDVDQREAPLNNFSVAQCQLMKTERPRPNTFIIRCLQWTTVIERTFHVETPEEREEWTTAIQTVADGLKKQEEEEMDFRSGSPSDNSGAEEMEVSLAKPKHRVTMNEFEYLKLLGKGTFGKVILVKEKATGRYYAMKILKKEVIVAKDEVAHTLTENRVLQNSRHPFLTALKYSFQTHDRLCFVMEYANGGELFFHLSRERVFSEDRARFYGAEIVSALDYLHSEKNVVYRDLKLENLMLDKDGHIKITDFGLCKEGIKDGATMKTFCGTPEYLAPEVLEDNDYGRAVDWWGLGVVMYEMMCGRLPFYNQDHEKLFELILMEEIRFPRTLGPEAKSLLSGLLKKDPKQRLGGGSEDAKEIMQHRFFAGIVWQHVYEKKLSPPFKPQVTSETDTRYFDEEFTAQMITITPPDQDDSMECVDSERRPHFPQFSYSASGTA
T1 sequence (Q9Y243 whole entry): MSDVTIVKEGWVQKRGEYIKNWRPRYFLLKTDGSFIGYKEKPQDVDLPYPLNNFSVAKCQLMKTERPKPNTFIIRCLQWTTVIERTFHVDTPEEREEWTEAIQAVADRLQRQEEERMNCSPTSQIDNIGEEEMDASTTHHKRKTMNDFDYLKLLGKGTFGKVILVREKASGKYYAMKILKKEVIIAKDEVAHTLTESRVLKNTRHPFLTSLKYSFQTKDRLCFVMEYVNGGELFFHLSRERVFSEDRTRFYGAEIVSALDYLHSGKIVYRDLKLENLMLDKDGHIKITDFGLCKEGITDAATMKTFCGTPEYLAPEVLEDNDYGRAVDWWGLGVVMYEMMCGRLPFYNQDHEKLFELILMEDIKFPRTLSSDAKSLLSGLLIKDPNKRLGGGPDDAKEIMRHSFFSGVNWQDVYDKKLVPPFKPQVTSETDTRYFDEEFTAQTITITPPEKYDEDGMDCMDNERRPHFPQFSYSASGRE

What is called pIC50 is −log10 of the IC50, conventionally taken in molar units. For `NC1(c2ccc(-c3c(-c4ccccc4)oc4c(-c5c[nH]nc5C(F)(F)F)cccc4c3=O)cc2)CCC1` [Example 76, 3-[4-(1-Amino-cyclobutyl)-phenyl]-2-phenyl-8-(3-trifluoromethyl-1H-pyrazol-4-yl)-chromen-4-one], the figures for the pIC50 in assay [1], in assay [2] and in assay [3] were 5.00 to 6.00, 5.00 to 6.00 and at least 6.00, respectively.

As for `NC1(c2ccc(-c3c(-c4ccccc4)oc4c(N5CCNC(=O)C5)cccc4c3=O)cc2)CCC1` [Example 77, 4-{3-[4-(1-Amino-cyclobutyl)-phenyl]-4-oxo-2-phenyl-4H-chromen-8-yl}-piperazin-2-one], the results for the pIC50 in assay [1], in assay [2] and in assay [3] were 5.00 to 6.00, 5.00 to 6.00 and at least 6.00, respectively.

Take `Cc1noc(C)c1-c1cccc2c(=O)c(-c3ccc(C4(N)CCC4)cc3)c(-c3ccccc3)oc12` [Example 78, 3-[4-(1-Amino-cyclobutyl)-phenyl]-8-(3,5-dimethyl-isoxazol-4-yl)-2-phenyl-chromen-4-one]: the pIC50 in assay [1], in assay [2] and in assay [3] was 5.00 to 6.00 each time.

With `COc1ccc2c(=O)c(-c3ccc(C4(N)CCC4)cc3)c(-c3ccccc3)oc2c1-c1cn[nH]c1` [Example 79, 3-[4-(1-Amino-cyclobutyl)-phenyl]-7-methoxy-2-phenyl-8-(1H-pyrazol-4-yl)-chromen-4-one], the pIC50 in assay [1], in assay [2] and in assay [3] was at least 6.00 each time.

Turning to `NC1(c2ccc(-c3c(-c4ccccc4)oc4c(-c5cn[nH]c5)nccc4c3=O)cc2)CCC1` [Example 80, 3-[4-(1-Amino-cyclobutyl)-phenyl]-2-phenyl-8-(1H-pyrazol-4-yl)-pyrano[2,3-c]pyridin-4-one hydrochloride], the pIC50 in assay [1], in assay [2] and in assay [3] was at least 6.00 each time.

Consider `CCn1ncc2ccc3c(=O)c(-c4ccc(C5(N)CCC5)cc4)c(-c4ccccc4)oc3c21` [Example 81, 7-[4-(1-Amino-cyclobutyl)-phenyl]-1-ethyl-8-phenyl-1H-9-oxa-1,2-diaza-cyclopenta[a]naphthalen-6-one hydrochloride], for which the negative logarithm of the IC50 (pIC50) was 5.00 to 6.00 in assay [1], at least 6.00 in assay [2] and at least 6.00 in assay [3].

Turning to `CCn1cc2ccc3c(=O)c(-c4ccc(C5(N)CCC5)cc4)c(-c4ccccc4)oc3c2n1` [Example 82, 7-[4-(1-Amino-cyclobutyl)-phenyl]-2-ethyl-8-phenyl-2H-9-oxa-1,2-diaza-cyclopenta[a]naphthalen-6-one hydrochloride], the pIC50 in assay [1] is under 5.00; in assay [2], at least 6.00; in assay [3] it was at least 6.00.

Turning to `CC(C)n1ncc2ccc3c(=O)c(-c4ccc(C5(N)CCC5)cc4)c(-c4ccccc4)oc3c21` [Example 83, 7-[4-(1-Amino-cyclobutyl)-phenyl]-1-isopropyl-8-phenyl-1H-9-oxa-1,2-diaza-cyclopenta[a]naphthalen-6-one hydrochloride], the pIC50 is 5.00 to 6.00 in assay [1], at least 6.00 in assay [2] and at least 6.00 in assay [3].

With `CC(C)n1cc2ccc3c(=O)c(-c4ccc(C5(N)CCC5)cc4)c(-c4ccccc4)oc3c2n1` [Example 84, 7-[4-(1-Amino-cyclobutyl)-phenyl]-2-isopropyl-8-phenyl-2H-9-oxa-1,2-diaza-cyclopenta[a]naphthalen-6-one hydrochloride], the figures for the pIC50 in assay [1], in assay [2] and in assay [3] were 5.00 to 6.00, at least 6.00 and at least 6.00, respectively.

Regarding `NC1(c2ccc(-c3c(-c4ccccc4)oc4c(ccc5cnn(CCO)c54)c3=O)cc2)CCC1` [Example 85, 7-[4-(1-Amino-cyclobutyl)-phenyl]-1-(2-hydroxy-ethyl)-8-phenyl-1H-9-oxa-1,2-diaza-cyclopenta[a]naphthalen-6-one hydrochloride], the pIC50 in assay [1] was 5.00 to 6.00; in assay [2] it was at least 6.00; in assay [3] it was at least 6.00.

In the case of `NC1(c2ccc(-c3c(-c4ccccc4)oc4c(ccc5cn(CCO)nc54)c3=O)cc2)CCC1` [Example 86, 7-[4-(1-Amino-cyclobutyl)-phenyl]-2-(2-hydroxy-ethyl)-8-phenyl-2H-9-oxa-1,2-diaza-cyclopenta[a]naphthalen-6-one hydrochloride], the pIC50 in assay [1] is 5.00 to 6.00; in assay [2], at least 6.00; in assay [3], at least 6.00.

On to `NC1(c2ccc(-c3c(-c4ccccc4)oc4c(ccc5[nH]c(=O)[nH]c54)c3=O)cc2)CCC1` [Example 87, 7-[4-(1-Amino-cyclobutyl)-phenyl]-8-phenyl-1,3-dihydro-chromeno[7,8-d]imidazole-2,6-dione], for which the pIC50 in assay [1] is under 5.00; in assay [2], at least 6.00; in assay [3], at least 6.00.

Turning to `NC1(c2ccc(-c3c(-c4ccccc4)oc4c(ccc5nn[nH]c54)c3=O)cc2)CCC1` [Example 88, 7-[4-(1-Amino-cyclobutyl)-phenyl]-8-phenyl-1H-9-oxa-1,2,3-triaza-cyclopenta[a]naphthalen-6-one], the pIC50 in assay [1] is under 5.00; in assay [2] it was at least 6.00; in assay [3], at least 6.00.

For `Cc1nc2ccc3c(=O)c(-c4ccc(C5(N)CCC5)cc4)c(-c4ccccc4)oc3c2[nH]1` [Example 89, 7-[4-(1-Amino-cyclobutyl)-phenyl]-2-methyl-8-phenyl-1H-chromeno[7,8-d]imidazol-6-one], the pIC50 in assay [1] was 5.00 to 6.00; in assay [2] it was at least 6.00; in assay [3], at least 6.00.

As for `Cc1nc2ccc3c(=O)c(-c4ccc(C5(N)CCC5)cc4)c(-c4ccccc4)oc3c2n1C` [Example 90, 7-[4-(1-Amino-cyclobutyl)-phenyl]-1,2-dimethyl-8-phenyl-1H-chromeno[7,8-d]imidazol-6-one], the pIC50 in assay [1], in assay [2] and in assay [3] was at least 6.00 in each case.

In the case of `NC1(c2ccc(-c3c(-c4ccccc4)oc4c(ccc5[nH]c(=O)oc54)c3=O)cc2)CCC1` [Example 91, 7-[4-(1-Amino-cyclobutyl)-phenyl]-8-phenyl-3H-chromeno[7,8-d]oxazole-2,6-dione], the pIC50 in assay [1] was under 5.00; in assay [2], at least 6.00; in assay [3] it was at least 6.00.

Consider `NC1(c2ccc(-c3c(-c4ccccc4)oc4c5c(ccc4c3=O)NC(=O)CO5)cc2)CCC1` [Example 92, 7-[4-(1-Amino-cyclobutyl)-phenyl]-6-phenyl-1H-4,5-dioxa-1-aza-phenanthrene-2,8-dione], for which the pIC50 in assay [1] is 5.00 to 6.00; in assay [2], at least 6.00; in assay [3] it was at least 6.00.

Take `Nc1ccc2c(=O)c(-c3ccc(C4(N)CCC4)cc3)c(-c3ccccc3)oc2c1O` [Example 93, 7-Amino-3-[4-(1-amino-cyclobutyl)-phenyl]-8-hydroxy-2-phenyl-chromen-4-one]: the pIC50 in assay [1] is under 5.00; in assay [2] it was 5.00 to 6.00; in assay [3], at least 6.00.

`NC1(c2ccc(-c3c(-c4ccccc4)oc4c(ccc5nc(C(F)(F)F)[nH]c54)c3=O)cc2)CCC1` [Example 94, 7-[4-(1-Amino-cyclobutyl)-phenyl]-8-Phenyl-2-trifluoromethyl-1H-chromeno[7,8-d]imidazol-6-one]: the figures for the pIC50 in assay [1], in assay [2] and in assay [3] were under 5.00, 5.00 to 6.00 and at least 6.00, respectively.

With `NC1(c2ccc(-c3c(-c4ccccc4)oc4c(ccc5nc(C(F)F)[nH]c54)c3=O)cc2)CCC1` [Example 95, 7-[4-(1-Amino-cyclobutyl)-phenyl]-2-difluoromethyl-8-phenyl-1H-chromeno[7,8-d]imidazol-6-one], the values for the pIC50 in assay [1], in assay [2] and in assay [3] were 5.00 to 6.00, at least 6.00 and at least 6.00, respectively.

Regarding `Cn1cnc2ccc3c(=O)c(-c4ccc(C5(N)CCC5)cc4)c(-c4ccccc4)oc3c21` [Example 96, 7-[4-(1-Amino-cyclobutyl)-phenyl]-1-methyl-8-phenyl-1H-chromeno[7,8-d]imidazol-6-one], the pIC50 in assay [1], in assay [2] and in assay [3] was at least 6.00 each time.

`NC1(c2ccc(-c3c(-c4ccccc4)oc4c(ccc5c(I)n[nH]c54)c3=O)cc2)CCC1` [Example 97, 7-[4-(1-Amino-cyclobutyl)-phenyl]-3-iodo-8-phenyl-1H-9-oxa-1,2-diaza-cyclopenta[a]naphthalen-6-one hydrochloride]: the values for the pIC50 in assay [1], in assay [2] and in assay [3] were under 5.00, 5.00 to 6.00 and at least 6.00, respectively.

On to `CCc1nn(C)c2c1ccc1c(=O)c(-c3ccc(C4(N)CCC4)cc3)c(-c3ccccc3)oc12` [Example 98, 7-[4-(1-Amino-cyclobutyl)-phenyl]-3-ethyl-1-methyl-8-phenyl-1H-9-oxa-1,2-diaza-cyclopenta[a]naphthalen-6-one hydrochloride], for which the pIC50 in assay [1] was 5.00 to 6.00; in assay [2], at least 6.00; in assay [3], at least 6.00.

For the molecule `NC1(c2ccc(-c3c(-c4ccccc4)oc4c(ccc5c(Cl)n[nH]c54)c3=O)cc2)CCC1` [Example 99, 7-[4-(1-Amino-cyclobutyl)-phenyl]-3-chloro-8-phenyl-1H-9-oxa-1,2-diaza-cyclopenta[a]naphthalen-6-one hydrochloride], the results for the pIC50 in assay [1], in assay [2] and in assay [3] were 5.00 to 6.00, 5.00 to 6.00 and at least 6.00, respectively.

`Cn1nc(Cl)c2ccc3c(=O)c(-c4ccc(C5(N)CCC5)cc4)c(-c4ccccc4)oc3c21` [Example 100, 7-[4-(1-Amino-cyclobutyl)-phenyl]-3-chloro-1-methyl-8-phenyl-1H-9-oxa-1,2-diaza-cyclopenta[a]naphthalen-6-one hydrochloride]: the figures for the negative logarithm of the IC50 (pIC50) in assay [1], in assay [2] and in assay [3] were 5.00 to 6.00, 5.00 to 6.00 and at least 6.00, respectively.

In the case of `Cn1cc(-c2nccc3c(=O)c(-c4ccc(C5(N)CCC5)cc4)c(-c4ccccc4)oc23)cn1` [Example 101, 3-[4-(1-Amino-cyclobutyl)-phenyl]-8-(1-methyl-1H-pyrazol-4-yl)-2-phenyl-pyrano[2,3-c]pyridin-4-one hydrochloride], the pIC50 in assay [1], in assay [2] and in assay [3] was at least 6.00 in each case.
